Source: patent US12692247B2, “Phenyl- and pyridopyrazole derivatives as inhibitors of DDR1” (Redx Pharma Limited, priority 2021, dated 2026)

How the values were obtained:
Recombinant human DDR1 = biological target: T1, Recombinant human DDR1 (Homo sapiens, UniProt Q08345); test: LanthaScreen Eu Kinase Binding Assay, DDR1; conditions: recombinant human DDR1 (2.5 nM; aa440-876, GST tag), Kinase Tracer 178 5 nM, time-resolved fluorescence, at least two independent replicates; read-out: DDR1 pIC50 (converted)
T1 construct: Recombinant human DDR1 (2.5 nM; aa440-876 containing a GST tag)
T1 sequence (Q08345 440-876 isoform Q08345-2): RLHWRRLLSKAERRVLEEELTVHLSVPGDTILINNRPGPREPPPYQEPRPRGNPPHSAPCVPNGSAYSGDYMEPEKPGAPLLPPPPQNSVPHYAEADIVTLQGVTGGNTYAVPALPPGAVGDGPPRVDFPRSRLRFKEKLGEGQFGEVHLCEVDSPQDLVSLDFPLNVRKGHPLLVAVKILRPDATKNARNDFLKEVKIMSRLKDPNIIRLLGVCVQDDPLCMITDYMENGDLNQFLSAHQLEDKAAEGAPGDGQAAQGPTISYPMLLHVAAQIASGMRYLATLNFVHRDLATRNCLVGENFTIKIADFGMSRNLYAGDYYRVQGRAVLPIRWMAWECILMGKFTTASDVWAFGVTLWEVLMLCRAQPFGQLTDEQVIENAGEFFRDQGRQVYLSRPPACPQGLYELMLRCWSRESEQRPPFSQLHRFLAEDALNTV
Experimental: (§1) DDR1 and DDR2 Biochemical Assay Method
(§2) The capacity of compounds to bind to DDR1 and DDR2 was quantified using a LanthaScreen Eu Kinase Binding Assay. Recombinant human DDR1 (2.5 nM; aa440-876 containing a GST tag) and DDR2 (1.75 nM; aa427-855 containing a GST tag) were diluted in assay buffer (50 mM HEPES pH7.3, 10 mM MgCl2, 1 mM EGTA and 0.01% Tween) with various concentrations of compound in a 384-well plate and a volume of 5 uL. After a 30-minute incubation at room temperature, 2.5 uL of Eu-anti GST antibody (diluted to 1 nM in assay buffer) plus Kinase Tracer 178 (diluted in assay buffer to 5 nM for DDR1 and 10 nM for DDR2) were added to the plate. Following 60-minute incubation at room temperature, time-resolved fluorescence was measured on a BMG Labtech PHERAstar plate reader. DMSO (1%) and reference compound (1 μM) were used to generate the Max and Min assay signals, respectively. Data was analysed using a four-parameter logistic model to calculate IC50 values, with at least two independent replicates were performed for each compound.

Recombinant human DDR2 = biological target: T2, Recombinant human DDR2 (Homo sapiens, UniProt Q16832); test: LanthaScreen Eu Kinase Binding Assay, DDR2; conditions: recombinant human DDR2 (1.75 nM; aa427-855, GST tag), Kinase Tracer 178 10 nM, time-resolved fluorescence, at least two independent replicates; read-out: DDR2 pIC50 (converted)
T2 construct: DDR2 (1.75 nM; aa427-855 containing a GST tag)
T2 sequence (Q16832 427-855): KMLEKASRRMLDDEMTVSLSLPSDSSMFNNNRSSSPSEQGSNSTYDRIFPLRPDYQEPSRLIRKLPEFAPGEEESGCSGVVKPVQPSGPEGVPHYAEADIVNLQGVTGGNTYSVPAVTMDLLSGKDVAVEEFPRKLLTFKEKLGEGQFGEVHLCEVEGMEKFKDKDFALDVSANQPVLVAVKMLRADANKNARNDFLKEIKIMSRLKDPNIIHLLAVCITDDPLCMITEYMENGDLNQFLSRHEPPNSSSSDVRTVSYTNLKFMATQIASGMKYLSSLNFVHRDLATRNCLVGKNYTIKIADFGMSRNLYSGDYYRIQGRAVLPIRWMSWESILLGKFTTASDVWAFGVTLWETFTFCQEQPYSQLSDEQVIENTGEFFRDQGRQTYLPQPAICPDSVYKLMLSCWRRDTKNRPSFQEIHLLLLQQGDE
Experimental: as §1, §2

| IC50 (Recombinant human DDR1) | IC50 (Recombinant human DDR2) | SMILES |
| --- | --- | --- |
| 10 to 100 nM | 100 to 1000 nM | Cn1ncc2cc(Nc3cccc4ccn(CC(=O)N5CCOCC5C(F)(F)F)c(=O)c34)ccc21 (stereo not drawn) [Example 87, 8-[(1-methylindazol-5-yl)amino]-2-[2-oxo-2-[3-(trifluoromethyl)morpholin-4-yl]ethyl]isoquinolin-1-one] |
| < 10 nM | 10 to 100 nM | Cn1ncc2cc(Nc3cccc4ccn(CC(=O)N5CCC[C@H]5CF)c(=O)c34)ccc21 [Example 136, 2-[2-[(2S)-2-(fluoromethyl)pyrrolidin-1-yl]-2-oxo-ethyl]-8-[(1-methylindazol-5-yl)amino]isoquinolin-1-one] |
| ≥ 1000 nM | ≥ 1000 nM | Cn1ncc2cc(Nc3cccc4ccn(CC(=O)NCC56CCCN5CCC6)c(=O)c34)ccc21 [Example 138] |
| 10 to 100 nM | 100 to 1000 nM | Cc1cn(-c2cc(NC(=O)Cn3ccc4cccc(Nc5ccc6c(cnn6C)c5)c4c3=O)cc(C(F)(F)F)c2)cn1 [Example 79, N-[3-(4-methylimidazol-1-yl)-5-(trifluoromethyl)phenyl]-2-[8-[(1-methylindazol-5-yl)amino]-1-oxo-2-isoquinolyl]acetamide] |
| < 10 nM | 10 to 100 nM | Cn1ncc2cc(Nc3cccc4ccn(CC(=O)N[C@@H](C5CC5)C(F)(F)F)c(=O)c34)ccc21 [Example 57, N-[(1S)-1-cyclopropyl-2,2,2-trifluoro-ethyl]-2-[8-[(1-methylindazol-5-yl)amino]-1-oxo-2-isoquinolyl]acetamide] |
| < 10 nM | 10 to 100 nM | Cn1ncc2cc(Nc3cccc4ccn(CC(=O)N5CCCC[C@H]5C(F)(F)F)c(=O)c34)ccc21 [Example 61, 8-[(1-methylindazol-5-yl)amino]-2-[2-oxo-2-[(2S)-2-(trifluoromethyl)-1-piperidyl]ethyl]isoquinolin-1-one] |
| 10 to 100 nM | ≥ 1000 nM | O=C(Cn1ccc2cccc(Nc3ccc4[nH]ncc4c3)c2c1=O)NCC(F)(F)F [Example 1, 2-[8-(1H-indazol-5-ylamino)-1-oxo-2-isoquinolyl]-N-(2,2,2-trifluoroethyl)acetamide] |
| ≥ 1000 nM | ≥ 1000 nM | CC(C(=O)NCC(F)(F)F)n1ccc2cccc(Nc3ccc4c(cnn4C)c3)c2c1=O (stereo not drawn) [Example 51, 2-[8-[(1-methylindazol-5-yl)amino]-1-oxo-2-isoquinolyl]-N-(2,2,2-trifluoroethyl) propanamide] |
| 10 to 100 nM | 100 to 1000 nM | Cn1ncc2cc(Nc3cccc4ccn(CC(=O)NC5(C(F)(F)F)CC5)c(=O)c34)ccc21 [Example 21, 2-[8-[(1-methylindazol-5-yl)amino]-1-oxo-2-isoquinolyl]-N-[1-(trifluoromethyl)cyclopropyl]acetamide] |
| 10 to 100 nM | ≥ 1000 nM | COc1ccc(NC(=O)Cn2ccc3cccc(Nc4ccc5c(cnn5C)c4)c3c2=O)cc1 [Example 55, N-(4-methoxyphenyl)-2-[8-[(1-methylindazol-5-yl)amino]-1-oxo-2-isoquinolyl]acetamide] |
| 10 to 100 nM | 10 to 100 nM | Cc1cc(C)n(C(=O)Cn2ccc3cccc(Nc4ccc5c(cnn5C)c4)c3c2=O)n1 [Example 98, 2-[2-(3,5-dimethyl-1H-pyrazol-1-yl)-2-oxoethyl]-8-[(1-methyl-1H-indazol-5-yl)amino]-1,2-dihydroisoquinolin-1-one] |
| ≥ 1000 nM | ≥ 1000 nM | CN1CCN(C(=O)Cn2ccc3cccc(Nc4ccc5c(cnn5C)c4)c3c2=O)CC1 [Example 13, 8-[(1-methylindazol-5-yl)amino]-2-[2-(4-methylpiperazin-1-yl)-2-oxo-ethyl]isoquinolin-1-one] |
| 100 to 1000 nM | ≥ 1000 nM | COC(=O)C1CCN(C(=O)Cn2ccc3cccc(Nc4ccc5c(cnn5C)c4)c3c2=O)C1 (stereo not drawn) [Example 73, methyl 1-[2-[8-[(1-methylindazol-5-yl)amino]-1-oxo2-isoquinolyl]acetyl]pyrrolidine-3-carboxylate] |
| < 10 nM | 10 to 100 nM | Cn1ncc2cc(Nc3cccc4ccn(CC(=O)Nc5cccc(C(C)(C)N)c5)c(=O)c34)ccc21 [Example 103] |
| 100 to 1000 nM | ≥ 1000 nM | Cn1ncc2cc(Nc3cccc4ccn(CC(=O)NCCC(F)(F)F)c(=O)c34)ccc21 [Example 44, 2-[8-[(1-methylindazol-5-yl)amino]-1-oxo-2-isoquinolyl]-N-(3,3,3-trifluoropropyl)acetamide] |
| ≥ 1000 nM | ≥ 1000 nM | Cn1ncc2cc(Nc3cccc4ccn(CC(=O)Nc5ccncc5)c(=O)c34)ccc21 [Example 26, 2-[8-[(1-methylindazol-5-yl)amino]-1-oxo-2-isoquinolyl]-N-(4-pyridyl)acetamide] |
| 100 to 1000 nM | 100 to 1000 nM | Cn1ncc2cc(Nc3cccc4ccn(CC(=O)N5CCOCC5)c(=O)c34)ccc21 [Example 11] |
| 100 to 1000 nM | ≥ 1000 nM | Cn1ncc2cc(Nc3cccc4ccn(CC(=O)NC5CC5)c(=O)c34)ccc21 [Example 17, N-cyclopropyl-2-[8-[(1-methylindazol-5-yl)amino]-1-oxo-2-isoquinolyl]acetamide] |
| ≥ 1000 nM | ≥ 1000 nM | Cc1ccc(Nc2ccc3c(cnn3C)c2)c2c(=O)n(CC(=O)NCC(F)(F)F)ccc12 [Example 8, 2-[5-methyl-8-[(1-methylindazol-5-yl)amino]-1-oxo-2-isoquinolyl]-N-(2,2,2-trifluoroethyl)acetamide] |
| < 10 nM | 10 to 100 nM | Cn1ncc2cc(Nc3cccc4ccn(CC(=O)N5CCC[C@H]5C(F)F)c(=O)c34)ccc21 [Example 131, 2-[2-[(2S)-2-(difluoromethyl)pyrrolidin-1-yl]-2-oxo-ethyl]-8-[(1-methylindazol-5-yl)amino]isoquinolin-1-one] |
| 100 to 1000 nM | ≥ 1000 nM | Cn1ncc2cc(Nc3cccc4ccn(CC(=O)NCC(C)(C)O)c(=O)c34)ccc21 [Example 54, N-(2-hydroxy-2-methyl-propyl)-2-[8-[(1-methylindazol-5-yl)amino]-1-oxo-2-isoquinolyl]acetamide] |
| 10 to 100 nM | 100 to 1000 nM | CN(C)Cc1cccc(NC(=O)Cn2ccc3cccc(Nc4ccc5c(cnn5C)c4)c3c2=O)c1 [Example 104, N-{3-[(dimethylamino)methyl]phenyl}-2-{8-[(1-methyl-1H-indazol-5-yl)amino]-1-oxo-1,2-dihydroisoquinolin-2-yl}acetamide] |
| ≥ 1000 nM | ≥ 1000 nM | Cn1ncc2cc(Nc3cccc4ccn(CC(=O)NC(CO)C(F)(F)F)c(=O)c34)ccc21 (stereo not drawn) [Example 50, 2-[8-[(1-methylindazol-5-yl)amino]-1-oxo-2-isoquinolyl]-N-[2,2,2-trifluoro-1-(hydroxymethyl)ethyl)acetamide] |
| 10 to 100 nM | 100 to 1000 nM | CN(CC(F)(F)F)C(=O)Cn1ccc2cccc(Nc3ccc4c(cnn4C)c3)c2c1=O [Example 23, N-methyl-2-[8-[(1-methylindazol-5-yl)amino]-1-oxo-2-isoquinolyl]-N-(2,2,2-trifluoroethyl)acetamide] |
| 10 to 100 nM | 100 to 1000 nM | Cn1ncc2cc(Nc3cccc4ccn(CC(=O)NCC5CC5)c(=O)c34)ccc21 [Example 16] |
| 10 to 100 nM | 10 to 100 nM | Cc1n[nH]c2cc(Nc3cccc4ccn(CC(=O)Nc5cnoc5)c(=O)c34)ccc12 [Example 158, N-isoxazol-4-yl-2-[8-[(3-methyl-1H-indazol-6-yl)amino]-1-oxo-2-isoquinolyl]acetamide] |
| 100 to 1000 nM | 100 to 1000 nM | Cn1ncc2cc(Nc3cccc4ccn(CC(=O)N5CCCCC5)c(=O)c34)ccc21 [Example 93] |
| 100 to 1000 nM | ≥ 1000 nM | CC(=O)C1CCN(C(=O)Cn2ccc3cccc(Nc4ccc5c(cnn5C)c4)c3c2=O)CC1 [Example 80, 2-[2-(4-acetyl-1-piperidyl)-2-oxo-ethyl]-8-[(1-methylindazol-5-yl)amino]isoquinolin-1-one] |
| < 10 nM | 10 to 100 nM | CC(=O)c1cccc(NC(=O)Cn2ccc3cccc(Nc4ccc5c(cnn5C)c4)c3c2=O)c1 [Example 32, N-(3-acetylphenyl)-2-[8-[(1-methylindazol-5-yl)amino]-1-oxo-2-isoquinolyl]acetamide] |

| SMILES | IC50 (Recombinant human DDR1) | IC50 (Recombinant human DDR2) |
| --- | --- | --- |
| Cn1ncc2cc(Nc3cccc4ccn(CC(=O)N5C6CCC5COC6)c(=O)c34)ccc21 [Example 97, 8-[(1-methyl-1H-indazol-5-yl)amino]-2-(2-{3-oxa-8-azabicyclo[3.2.1]octan-8-yl}-2-oxoethyl)-1,2-dihydroisoquinolin-1-one] | 100 to 1000 nM | ≥ 1000 nM |
